In patent publication US20220251143A1, “NON-HYDROLYZABLE NON-CLEAVABLE, STABLE LINKERS FOR PRECISION THERAPEUTICS AND USES THEREOF” (THE TRUSTEES OF COLUMBIA UNIVERSITY IN THE CITY OF NEW YORK, priority 2019, published 2022):
Bridge positions count the residues as written; N and C are the ends. Square brackets hold non-standard residues; d marks the D form. Peptide text beside a SMILES is read from it. * marks the point of attachment. DM1Mal(CH2)2CO = COc1cc2cc(c1Cl)N(C)C(=O)C[C@H](OC(=O)[C@H](C)N(C)C(=O)CCSC1CC(=O)N(CCC(=O)*)C1=O)[C@]1(C)O[C@H]1[C@H](C)[C@@H]1C[C@@](O)(NC(=O)O1)[C@H](OC)/C=C/C=C(\C)C2; X1 = COc1cc2cc(c1Cl)N(C)C(=O)C[C@H](OC(=O)[C@H](C)N(C)C(=O)CCSC1CC(=O)N(CCCC(=O)*)C1=O)[C@]1(C)O[C@H]1[C@H](C)[C@@H]1C[C@@](O)(NC(=O)O1)[C@H](OC)/C=C/C=C(\C)C2; d2Nal = N[C@H](Cc1ccc2ccccc2c1)C(=O)O; PEG2 = NCCOCCOCCC(=O)O

Tests used:
[1] = test system: neuroendocrine prostate cancer (NEPC) organoids; settings: three days
From the text: A neuroendocrine prostate cancer (NEPC) cell line was used and NEPC organoids were generated.
CellTiter-Glo Luminescent Cell Viability assay measured viable cells. The percentage of viable cells after drug treatment compared to vehicle control (DMSO) was used to generate a dose—response curve.

[2] = Stability of aqueous solutions at 4° C.; assay type: physicochemical; settings: preliminary studies
From the text: (§1) Conjugate composition comprising DM1 and lanreotide and the non-hydrolyzable, non-cleavable, stable linker GMBS was synthesized as shown in Scheme 1. Briefly, the primary amine of lanreotide was protected with Boc20. The reaction of the second amine group of the protected lanreotide with the NHS ester of GMBS gave the intermediate GMBS-lanreotide. The reaction of the maleimide of GMBS-lanreotide with the sulfhydryl group (—SH) of DM1 gave a protected conjugate. De-protection of the Boc with TFA provided the final product. All compounds were fully characterized and purified to >95% as determined by NMR and LC-MS analyses. The purity of the compound for animal studies is >98%.
as §1, with “PEG” for “GMBS”, “2.” for “1.”, “PEG-lanreotide.” for “GMBS-lanreotide.”, “PEG-lanreotide” for “GMBS-lanreotide”

[3] = test system: SSTR2 expression in NEC3 (H727) cells; test: SSTR2 expression by quantitative PCR, NEC3; assay type: cell-based; settings: within 72 hours, 1 or 3 nanomolar romidepsin or 1 micromolar entinostat
Description: (§2) Three neuroendocrine cell lines, NEC1 (NCI—H82), NEC2 (Kelly), and NEC3 (H727), were incubated in media containing 1 or 3 nanomolar romidepsin (EA1) or 1 micromolar entinostat (EA2) or without drug at 37° C. under 5% CO2 for 72-96 hours after which time cellular RNA was harvested and expression of the SSTR determined.
(§3) Somatostatin receptor expression was measured by quantitative PCR using primers for SSTR2.

[4] = test system: SSTR2 expression in NEC1 (NCI-H82) cells; test: SSTR2 expression by quantitative PCR, NEC1; assay type: cell-based; settings: within 72 hours, 1 or 3 nanomolar romidepsin or 1 micromolar entinostat
Description: as §2, §3

[5] = test system: SSTR2 expression in NEC2 (Kelly) cells; test: SSTR2 expression by quantitative PCR, NEC2; assay type: cell-based; settings: within 72 hours, 1 or 3 nanomolar romidepsin or 1 micromolar entinostat
Description: as §2, §3

SMILES	effectiveness compared with conjugate with cleavable, hydrolysable linker (MCC) ([1]; NEPC organoids)	activity in NEPC organoids (viable cells) ([1]; 1 uM to 0.00046 uM)	stability of aqueous solutions [2]	induction of the somatostatin receptor (SSTR2 expression) [3]	induction of the somatostatin receptor (SSTR2 expression) [4]	induction of the somatostatin receptor (SSTR2 expression) [5]
COc1cc2cc(c1Cl)N(C)C(=O)C[C@H](OC(=O)[C@H](C)N(C)C(=O)CCSC1CC(=O)N(CCC(=O)NCCOCCOCCC(=O)N[C@H](Cc3ccc4ccccc4c3)C(=O)N[C@H]3CSSC[C@H](C(=O)N[C@H](C(N)=O)[C@@H](C)O)NC(=O)[C@H](C(C)C)NC(=O)[C@H](CCCCN)NC(=O)[C@@H](Cc4c[nH]c5ccccc45)NC(=O)[C@H](Cc4ccc(O)cc4)NC3=O)C1=O)[C@]1(C)O[C@H]1[C@H](C)[C@@H]1C[C@@](O)(NC(=O)O1)[C@H](OC)/C=C/C=C(\C)C2 (stereo partly shown) [DM1-PEG-Lanreotide] ({DM1Mal(CH2)2CO-PEG2}-[d2Nal]CY[dW]KV[dC]T-NH2; disulfide 2-7)	more effective	effective and active	stable at 4 °C for months			
Nc1ccccc1NC(=O)c1ccc(CNC(=O)OCc2cccnc2)cc1 [entinostat]				Induction of the somatostatin receptor	Induction of the somatostatin receptor	Induction of the somatostatin receptor
COc1cc2cc(c1Cl)N(C)C(=O)C[C@H](OC(=O)[C@H](C)N(C)C(=O)CCSC1CC(=O)N(CCCC(=O)N[C@H](Cc3ccc4ccccc4c3)C(=O)N[C@H]3CSSC[C@H](C(=O)N[C@H](C(N)=O)[C@@H](C)O)NC(=O)[C@H](C(C)C)NC(=O)[C@H](CCCCN)NC(=O)[C@@H](Cc4c[nH]c5ccccc45)NC(=O)[C@H](Cc4ccc(O)cc4)NC3=O)C1=O)[C@]1(C)O[C@H]1[C@H](C)[C@@H]1C[C@@](O)(NC(=O)O1)[C@H](OC)/C=C/C=C(\C)C2 (stereo partly shown) [DM1-GMBS-Lanreotide] (X1-[d2Nal]CY[dW]KV[dC]T-NH2; disulfide 2-7)			stable at 4 °C for months			
